What is called IC50 is the concentration that inhibits the measured activity by half.

Molecules are shown by their SMILES.

In experiment [1] the target is Mitogen-activated protein kinase 7 (Homo sapiens) (UniProt Q13164). The experiment in a line: Selectivity interaction (Ambit KINOMEscan and KiNATiv profiling in Jurkat cells) EUB0000090b MAPK7. Type of experiment: cell-based. The conditions noted are these: at 1 µM.
In experiment [2] the target is Phosphatidylinositol 4,5-bisphosphate 3-kinase catalytic subunit beta isoform (Homo sapiens) (UniProt P42338). The experiment in a line: Selectivity interaction (KinomeScan (DiscoverX)) EUB0000655a PIK3CB. As to conditions: at 10 µM.
Phosphatidylinositol 4,5-bisphosphate 3-kinase catalytic subunit beta isoform (Homo sapiens), sequence (P42338 whole entry, looked up, canonical isoform): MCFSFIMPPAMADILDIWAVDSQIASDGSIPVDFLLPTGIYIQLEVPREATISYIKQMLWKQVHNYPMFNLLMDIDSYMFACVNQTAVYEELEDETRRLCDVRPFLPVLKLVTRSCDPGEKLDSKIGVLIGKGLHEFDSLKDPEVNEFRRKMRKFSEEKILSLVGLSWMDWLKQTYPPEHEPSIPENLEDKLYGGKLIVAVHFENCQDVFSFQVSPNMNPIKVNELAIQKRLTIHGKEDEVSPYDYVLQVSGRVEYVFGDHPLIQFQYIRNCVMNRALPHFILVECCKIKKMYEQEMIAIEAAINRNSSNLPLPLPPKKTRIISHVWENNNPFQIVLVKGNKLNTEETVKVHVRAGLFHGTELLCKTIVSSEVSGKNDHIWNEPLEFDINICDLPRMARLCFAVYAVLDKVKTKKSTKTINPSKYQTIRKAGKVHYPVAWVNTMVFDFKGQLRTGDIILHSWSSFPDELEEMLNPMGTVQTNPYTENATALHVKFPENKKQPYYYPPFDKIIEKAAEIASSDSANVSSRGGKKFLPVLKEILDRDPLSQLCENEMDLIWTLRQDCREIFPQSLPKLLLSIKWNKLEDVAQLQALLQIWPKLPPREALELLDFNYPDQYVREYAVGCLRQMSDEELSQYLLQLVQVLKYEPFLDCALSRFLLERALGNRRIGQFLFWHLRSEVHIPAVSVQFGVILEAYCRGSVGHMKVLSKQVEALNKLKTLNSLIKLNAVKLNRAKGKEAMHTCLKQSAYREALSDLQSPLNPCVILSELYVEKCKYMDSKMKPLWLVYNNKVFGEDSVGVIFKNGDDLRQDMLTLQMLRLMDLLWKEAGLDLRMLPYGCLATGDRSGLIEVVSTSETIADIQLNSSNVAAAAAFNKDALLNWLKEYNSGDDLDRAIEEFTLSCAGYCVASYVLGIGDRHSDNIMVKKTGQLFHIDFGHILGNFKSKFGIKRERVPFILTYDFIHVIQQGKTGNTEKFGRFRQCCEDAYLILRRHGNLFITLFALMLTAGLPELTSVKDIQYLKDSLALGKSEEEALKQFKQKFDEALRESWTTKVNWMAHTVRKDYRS
The target of experiment [3] is T1, Interleukin-1 receptor-associated kinase 3 (Homo sapiens) (UniProt Q9Y616).
T1 sequence (whole entry): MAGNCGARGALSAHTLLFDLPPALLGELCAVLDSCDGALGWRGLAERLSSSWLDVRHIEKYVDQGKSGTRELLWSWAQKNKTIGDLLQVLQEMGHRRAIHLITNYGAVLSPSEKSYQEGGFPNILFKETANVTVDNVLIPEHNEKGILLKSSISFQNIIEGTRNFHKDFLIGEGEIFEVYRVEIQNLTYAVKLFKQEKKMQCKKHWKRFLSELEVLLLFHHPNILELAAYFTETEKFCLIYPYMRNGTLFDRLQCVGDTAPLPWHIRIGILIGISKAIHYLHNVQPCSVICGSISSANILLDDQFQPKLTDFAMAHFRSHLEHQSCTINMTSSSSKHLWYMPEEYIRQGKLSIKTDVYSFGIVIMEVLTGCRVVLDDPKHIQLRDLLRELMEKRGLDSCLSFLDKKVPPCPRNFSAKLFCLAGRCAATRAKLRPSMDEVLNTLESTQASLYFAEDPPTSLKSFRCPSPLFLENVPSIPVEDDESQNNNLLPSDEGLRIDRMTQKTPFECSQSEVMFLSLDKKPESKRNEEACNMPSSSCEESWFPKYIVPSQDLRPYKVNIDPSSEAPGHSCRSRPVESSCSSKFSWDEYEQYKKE
The conditions noted are these: at 10 µM.

In experiment [4] the target is T2, Receptor-interacting serine/threonine-protein kinase 4 (Homo sapiens) (UniProt P57078).
T2 sequence (whole entry): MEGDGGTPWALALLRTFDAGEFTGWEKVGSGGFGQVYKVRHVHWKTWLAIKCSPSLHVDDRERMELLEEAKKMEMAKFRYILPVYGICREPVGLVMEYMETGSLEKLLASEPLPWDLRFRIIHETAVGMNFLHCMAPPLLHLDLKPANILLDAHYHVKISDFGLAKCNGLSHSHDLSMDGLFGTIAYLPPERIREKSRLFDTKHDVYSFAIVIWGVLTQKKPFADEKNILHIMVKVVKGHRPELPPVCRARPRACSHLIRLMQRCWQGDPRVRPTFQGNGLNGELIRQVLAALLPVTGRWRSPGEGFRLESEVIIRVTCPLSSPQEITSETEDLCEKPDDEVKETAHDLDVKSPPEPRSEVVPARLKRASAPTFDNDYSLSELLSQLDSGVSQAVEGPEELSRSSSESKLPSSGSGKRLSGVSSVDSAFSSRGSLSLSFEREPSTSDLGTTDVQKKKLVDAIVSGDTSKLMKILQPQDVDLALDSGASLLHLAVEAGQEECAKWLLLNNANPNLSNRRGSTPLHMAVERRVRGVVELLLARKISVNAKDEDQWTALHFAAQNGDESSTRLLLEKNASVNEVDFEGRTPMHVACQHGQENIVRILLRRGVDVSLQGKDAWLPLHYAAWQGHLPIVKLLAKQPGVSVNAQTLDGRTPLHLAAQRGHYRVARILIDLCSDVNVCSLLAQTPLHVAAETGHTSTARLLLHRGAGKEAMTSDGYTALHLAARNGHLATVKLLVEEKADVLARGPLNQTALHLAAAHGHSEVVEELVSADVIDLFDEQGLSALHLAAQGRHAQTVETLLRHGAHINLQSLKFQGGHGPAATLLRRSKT
The experiment in a line: Selectivity interaction (KinomeScan (DiscoverX)) EUB0000695a RIPK4. The conditions noted are these: at 100 nM.

In experiment [5] the target is T3, Myotonin-protein kinase (Homo sapiens) (UniProt Q09013).
T3 sequence (whole entry): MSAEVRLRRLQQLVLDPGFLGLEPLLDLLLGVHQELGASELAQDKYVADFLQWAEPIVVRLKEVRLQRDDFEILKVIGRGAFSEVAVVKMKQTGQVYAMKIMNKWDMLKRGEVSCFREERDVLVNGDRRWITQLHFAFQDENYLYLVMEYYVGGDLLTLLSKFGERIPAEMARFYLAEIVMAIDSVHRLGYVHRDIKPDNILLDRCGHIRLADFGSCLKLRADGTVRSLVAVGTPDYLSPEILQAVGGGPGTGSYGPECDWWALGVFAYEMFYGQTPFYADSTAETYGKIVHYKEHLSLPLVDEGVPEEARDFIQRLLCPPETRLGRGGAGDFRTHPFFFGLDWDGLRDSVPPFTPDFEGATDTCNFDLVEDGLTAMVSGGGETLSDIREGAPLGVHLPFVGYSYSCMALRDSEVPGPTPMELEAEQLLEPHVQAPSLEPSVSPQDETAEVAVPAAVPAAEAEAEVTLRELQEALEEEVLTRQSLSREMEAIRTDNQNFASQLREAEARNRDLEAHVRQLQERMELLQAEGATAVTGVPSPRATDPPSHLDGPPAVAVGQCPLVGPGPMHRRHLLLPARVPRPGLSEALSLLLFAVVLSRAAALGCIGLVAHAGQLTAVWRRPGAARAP
The experiment is described as follows: Selectivity interaction (Upstate Kinase Profiler service (Millipore)) EUB0000056c DMPK. The conditions noted are these: at 1 µM.

The target of experiment [6] is Serine/threonine-protein kinase PLK3 (Homo sapiens, UniProt Q9H4B4). The experiment in a line: Selectivity interaction (Upstate Kinase Profiler service (Millipore)) EUB0000056c PLK3. As to conditions: at 1 µM.
Serine/threonine-protein kinase PLK3, sequence (Q9H4B4 whole entry, looked up): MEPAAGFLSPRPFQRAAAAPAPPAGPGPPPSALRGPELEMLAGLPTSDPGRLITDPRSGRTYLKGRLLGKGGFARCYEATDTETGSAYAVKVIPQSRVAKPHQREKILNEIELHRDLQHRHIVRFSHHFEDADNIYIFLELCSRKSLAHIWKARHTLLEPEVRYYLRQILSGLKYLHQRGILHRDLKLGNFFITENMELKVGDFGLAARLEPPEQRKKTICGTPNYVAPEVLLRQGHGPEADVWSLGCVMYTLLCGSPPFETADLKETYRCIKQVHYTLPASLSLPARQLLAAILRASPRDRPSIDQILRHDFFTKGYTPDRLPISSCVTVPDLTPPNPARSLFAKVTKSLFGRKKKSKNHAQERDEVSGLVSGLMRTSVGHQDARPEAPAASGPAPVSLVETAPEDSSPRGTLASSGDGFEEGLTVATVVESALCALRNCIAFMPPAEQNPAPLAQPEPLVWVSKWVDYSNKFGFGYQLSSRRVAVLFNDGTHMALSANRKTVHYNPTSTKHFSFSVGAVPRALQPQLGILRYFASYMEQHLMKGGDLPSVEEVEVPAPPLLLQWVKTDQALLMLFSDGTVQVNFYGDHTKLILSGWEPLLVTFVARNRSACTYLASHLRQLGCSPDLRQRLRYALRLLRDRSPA
Experiment [7] has as its target Insulin-like growth factor 1 receptor (Homo sapiens, UniProt P08069). The experiment in a line: Selectivity interaction (Kinase panel (enzymatic assay)) EUB0000595a IGF1R.

Mitogen-activated protein kinase 7 (Homo sapiens), sequence (Q13164 2-816 limits assumed): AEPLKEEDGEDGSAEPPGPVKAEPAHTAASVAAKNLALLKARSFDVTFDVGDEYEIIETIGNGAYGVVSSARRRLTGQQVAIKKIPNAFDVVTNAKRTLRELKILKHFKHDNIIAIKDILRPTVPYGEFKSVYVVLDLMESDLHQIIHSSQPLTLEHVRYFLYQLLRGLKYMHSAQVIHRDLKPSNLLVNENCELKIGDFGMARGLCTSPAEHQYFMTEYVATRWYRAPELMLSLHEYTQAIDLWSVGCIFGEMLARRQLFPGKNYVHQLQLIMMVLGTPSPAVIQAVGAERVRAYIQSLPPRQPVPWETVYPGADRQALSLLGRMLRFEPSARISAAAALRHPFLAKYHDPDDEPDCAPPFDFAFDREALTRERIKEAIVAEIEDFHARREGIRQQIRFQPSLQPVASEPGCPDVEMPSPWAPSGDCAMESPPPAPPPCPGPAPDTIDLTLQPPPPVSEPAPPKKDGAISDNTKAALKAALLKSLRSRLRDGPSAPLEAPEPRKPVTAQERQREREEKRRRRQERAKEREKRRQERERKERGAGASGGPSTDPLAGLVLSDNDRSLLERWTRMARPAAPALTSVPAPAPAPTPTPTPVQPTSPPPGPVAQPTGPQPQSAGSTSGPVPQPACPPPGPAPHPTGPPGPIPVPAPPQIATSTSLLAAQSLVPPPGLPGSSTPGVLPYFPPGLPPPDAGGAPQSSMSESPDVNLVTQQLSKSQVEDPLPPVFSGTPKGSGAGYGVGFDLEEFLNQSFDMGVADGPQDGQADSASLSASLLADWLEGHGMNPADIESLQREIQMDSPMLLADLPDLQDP
Insulin-like growth factor 1 receptor, sequence (P08069 31-736 limits assumed): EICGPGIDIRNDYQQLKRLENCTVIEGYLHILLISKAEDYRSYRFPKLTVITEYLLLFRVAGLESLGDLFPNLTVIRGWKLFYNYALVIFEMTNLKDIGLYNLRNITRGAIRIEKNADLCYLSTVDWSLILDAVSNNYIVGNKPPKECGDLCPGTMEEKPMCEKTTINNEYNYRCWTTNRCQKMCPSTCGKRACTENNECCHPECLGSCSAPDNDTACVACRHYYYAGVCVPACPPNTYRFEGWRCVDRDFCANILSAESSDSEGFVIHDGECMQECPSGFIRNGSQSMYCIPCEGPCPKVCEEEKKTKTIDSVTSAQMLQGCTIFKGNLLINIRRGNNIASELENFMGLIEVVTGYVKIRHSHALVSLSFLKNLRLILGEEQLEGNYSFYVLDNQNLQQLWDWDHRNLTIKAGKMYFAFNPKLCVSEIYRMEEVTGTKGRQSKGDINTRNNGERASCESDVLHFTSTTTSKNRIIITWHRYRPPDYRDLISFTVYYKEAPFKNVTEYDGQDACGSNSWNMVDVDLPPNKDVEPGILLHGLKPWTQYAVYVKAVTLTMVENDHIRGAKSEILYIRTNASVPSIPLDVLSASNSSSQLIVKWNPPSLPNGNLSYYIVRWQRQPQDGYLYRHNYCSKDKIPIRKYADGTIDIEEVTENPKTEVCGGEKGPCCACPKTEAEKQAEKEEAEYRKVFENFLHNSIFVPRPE
Insulin-like growth factor 1 receptor, sequence (P08069 741-1367 limits assumed): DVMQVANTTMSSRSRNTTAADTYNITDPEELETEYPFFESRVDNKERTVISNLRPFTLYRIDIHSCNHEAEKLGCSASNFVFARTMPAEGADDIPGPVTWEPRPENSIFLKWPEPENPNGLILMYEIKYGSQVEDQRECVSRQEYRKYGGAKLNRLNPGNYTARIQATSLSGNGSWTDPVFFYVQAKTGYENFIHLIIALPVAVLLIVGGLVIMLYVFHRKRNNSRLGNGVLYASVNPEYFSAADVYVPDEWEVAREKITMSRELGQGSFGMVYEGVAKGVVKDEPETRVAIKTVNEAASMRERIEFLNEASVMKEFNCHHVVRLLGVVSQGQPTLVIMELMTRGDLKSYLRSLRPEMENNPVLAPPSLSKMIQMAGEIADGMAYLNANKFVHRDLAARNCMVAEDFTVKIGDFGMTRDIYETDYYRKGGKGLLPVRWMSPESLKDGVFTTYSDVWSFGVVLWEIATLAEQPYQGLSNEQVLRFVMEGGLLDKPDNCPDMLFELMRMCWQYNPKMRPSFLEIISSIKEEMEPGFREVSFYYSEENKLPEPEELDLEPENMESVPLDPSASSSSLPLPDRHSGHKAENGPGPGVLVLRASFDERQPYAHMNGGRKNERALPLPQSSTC

For `CN(C)C/C=C/C(=O)Nc1ccc(C(=O)N2CCCC(Nc3ncc(Cl)c(-c4c[nH]c5ccccc45)n3)C2)cc1` (configuration not stated), the % of control in experiment [1] turned out to be 88%. The compound `CN(C)CCOc1ccc(-c2nc(-c3ccncc3)c(-c3ccc4c(c3)CC/C4=N\O)[nH]2)cc1` gave a % of control in experiment [2] of 100%. In experiment [3], `CCN(CC)CCCCNc1ncc2cc(-c3cc(OC)cc(OC)c3)c(NC(=O)NC(C)(C)C)nc2n1` gave a % of control of 100%.

Compound `Cc1cc(F)c(C(=O)Nc2cccc(-c3nncn3C(C)C)n2)cc1-n1cnc(C2CC2)c1` came in with a % of control in experiment [4] of 100%.

On to `Cc1ccc(-c2ccc3c(ccc4sc5c(c43)NC[C@@H](C)NC5=O)n2)cn1`, for which the values for the % of inhibition in experiment [5] and in experiment [6] were -8% and -2%, respectively. Regarding `COCC(=O)NC/C=C/c1ccc2ncnc(Nc3ccc(Oc4ccc(C)nc4)c(C)c3)c2c1` [CP-724714], the IC50 in experiment [7] was greater than 10 µM.

The values above are taken from ChEMBL document CHEMBL5465560, “Selectivity Literature for EUbOPEN Chemogenomic Library” (2024).
